Experimental data: US8586751B2, “Nicotinamide compounds useful as kinase modulators” (Bristol-Myers Squibb Company, priority 2009, dated 2013)
Where two headings read alike, the source gives them in different places.

Legend:
[1] = test system: Ramos B cells with beta-lactamase reporter gene under control of an NFAT response element; test: NFAT-bla RA1 Reporter Assay (Ramos-NFAT); type: cell-based, human; settings: read-out: IMM Ramos-NFAT (IC50)
Description: NFAT-bla RA1 Reporter Assay
Ramos B cells containing a stable integration of a beta-lactamase reporter gene under the control of an NFAT response element (NFAT-bla RA1, Invitrogen, K1434) at a density of 100×10^3 cells/well were incubated with test compounds at 37° C. for 30 min prior to stimulation with F(ab′)2 anti-human IgM (Jackson ImmunoResearch, 109-006-129) at 2.5 μg/ml for 4.5 hrs at 37° C. After stimulation, LiveBLAzer-FRET B/G substrate (CCF2/AM, or CCF4/AM, Invitrogen) was added to each well and incubated for 90 min at room temperature in the dark. Assay plates were read on an LJL Analyst, with raw emission values subtracted from a media-only blank containing substrate in assay media (no cells). The ratios of 460 nm/530 nm emission (405 nm excitation) were used to calculate the amount of stimulation.

human recombinant Btk = target: T1, human recombinant Btk (Homo sapiens, UniProt Q06187); test: Human Recombinant Btk Enzyme Assay (LLE_BTK); type: biochemical
T1 construct: purchased Invitrogen Corporation
Description: Human Recombinant Btk Enzyme Assay
To V-bottom 384-well plates were added test compounds, human recombinant Btk (1 nM, Invitrogen Corporation), fluoresceinated peptide (1.5 μM), ATP (20 μM), and assay buffer (20 mM HEPES pH 7.4, 10 mM MgCl2, 0.015% Brij35 and 4 mM DTT in 1.6% DMSO), with a final volume of 30 μL. After incubating at room temperature for 60 min, the reaction was terminated by adding 45 μl of 35 mM EDTA to each sample. The reaction mixture was analyzed on the Caliper LABCHIP® 3000 (Caliper, Hopkinton, Mass.) by electrophoretic separation of the fluorescent substrate and phosphorylated product. Inhibition data were calculated by comparison to no enzyme control reactions for 100% inhibition and no inhibitor controls for 0% inhibition. Dose response curves were generated to determine the concentration required inhibiting 50% of kinase activity (IC50). Compounds were dissolved at 10 mM in dimethylsulfoxide (DMSO) and evaluated at eleven concentrations.
Using this assay, the following IC50 values derived by non-linear regression analysis were determined and compared to those values of certain compounds in U.S. Publication No. 2007/078136 and U.S. Publication No. 2008/045536.

T1 sequence (Q06187 whole entry): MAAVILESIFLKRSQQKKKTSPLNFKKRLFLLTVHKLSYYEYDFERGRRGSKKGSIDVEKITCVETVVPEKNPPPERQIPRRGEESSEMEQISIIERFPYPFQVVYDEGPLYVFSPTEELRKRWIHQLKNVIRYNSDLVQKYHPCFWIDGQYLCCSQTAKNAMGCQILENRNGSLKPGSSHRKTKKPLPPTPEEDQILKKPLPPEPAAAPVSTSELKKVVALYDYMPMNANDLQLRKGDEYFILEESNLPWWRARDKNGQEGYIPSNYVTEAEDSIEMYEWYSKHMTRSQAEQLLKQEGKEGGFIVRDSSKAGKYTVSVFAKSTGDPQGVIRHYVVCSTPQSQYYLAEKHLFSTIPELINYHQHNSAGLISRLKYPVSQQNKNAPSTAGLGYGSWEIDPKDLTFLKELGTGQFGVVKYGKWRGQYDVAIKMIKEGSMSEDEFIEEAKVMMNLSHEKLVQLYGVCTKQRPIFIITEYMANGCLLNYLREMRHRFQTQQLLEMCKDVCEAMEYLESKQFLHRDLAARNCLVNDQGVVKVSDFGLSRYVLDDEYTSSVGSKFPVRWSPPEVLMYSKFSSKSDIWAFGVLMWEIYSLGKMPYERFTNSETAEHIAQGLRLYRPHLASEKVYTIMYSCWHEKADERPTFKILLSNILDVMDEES

SMILES | IC50 ([1]; Homo sapiens, Ramos) [nM] | IC50 (human recombinant Btk) [nM] | IC50 [1] [nM]
CS(=O)(=O)c1ccc(Nc2nc(N3CCC[C@@H](NC(=O)c4ccccc4)C3)c(F)cc2C(N)=O)cc1 [Example 506] | 150 | 2 | 
CN(C)CCc1ccc(Nc2nc(N3CCC[C@@H](NC(=O)Nc4nccs4)C3)c(F)cc2C(N)=O)cc1 [Example 458] | 30 | 0.6 | 50
CN1CCN(C(=O)c2ccc(Nc3nc(N4CCC[C@@H](NC(=O)Nc5nccs5)C4)c(F)cc3C(N)=O)cc2)CC1 [Example 544] | 560 | 0.9 | 
CC(C)(C)OC(=O)N1CCCC(c2ccc(Nc3nc(N4CCCCC4)c(F)cc3C(N)=O)cc2)C1 (stereo not shown) [Example 523] | 10000 | 3700 | 
CN1CCC(c2ccc(Nc3nc(N4CCC[C@@H](NC(=O)c5ccccc5)C4)c(F)cc3C(N)=O)cc2)CC1 [Example 490] | 270 | 3 | 
CN1CCCC(c2ccc(Nc3nc(N4CCC[C@@H](NC(=O)Nc5ncc(F)s5)C4)c(F)cc3C(N)=O)cc2)C1 (stereo partly shown) [Example 564] | 100 | 1 | 
CN(C)CCc1ccc(Nc2nc(N3CCC[C@@H](NC(=O)Nc4nncs4)C3)c(F)cc2C(N)=O)cc1 [Example 462] | 250 | 2 | 
CN1CCN(c2ccc(Nc3nc(N4CCC[C@@H](NC(=O)Nc5nccs5)C4)ccc3C(N)=O)cc2)CC1 [Example 284] | 60 | 7 | 
CN1CCC(C)(c2ccc(Nc3nc(N4CCC[C@@H](N5CCCC5=O)C4)c(F)cc3C(N)=O)cc2)CC1 [Example 566] | 90 | 3 | 
CN1CCC(O)(c2ccc(Nc3nc(N4CCC[C@@H](N5CCCC5=O)C4)c(F)cc3C(N)=O)cc2)C(C)(C)C1 (stereo partly shown) [Example 568] | 120 | 1 | 
NC(=O)c1cc(F)c(N2CCC[C@@H](NC(=O)Nc3nccs3)C2)nc1Nc1ccc(C(=O)N2CCOCC2)cc1 [Example 382] | 800 | 2 | 
CN1CCC(C)(c2ccc(Nc3nc(N4CCC[C@@H](NC(=O)Nc5ncc(F)s5)C4)c(F)cc3C(N)=O)cc2)CC1 [Example 495] | 80 | 1 | 
NC(=O)c1cc(F)c(N2CCC[C@@H](NC(=O)c3ccccc3)C2)nc1Nc1ccc(N2CCS(=O)(=O)CC2)cc1 [Example 503] | 80 | 7 | 
Cc1ccc(NC(=O)N[C@@H]2CCCN(c3ccc(C(N)=O)c(Nc4ccc(N5CCN(C)CC5)cc4)n3)C2)cc1C [Example 283] | 120 | 10 | 
NC(=O)c1cc(F)c(N2CCC[C@@H](NC(=O)c3ccccc3)C2)nc1Nc1ccc(N2CCOCC2)cc1 [Example 422] | 120 | 20 | 
CN1CCN(c2ccc(Nc3nc(N4CCC[C@@H](NC(=O)Nc5nccs5)C4)c(F)cc3C(N)=O)cc2)CC1 [Example 385] | 20 | 3 | 
CS(=O)(=O)c1ccc(Nc2nc(N3CCCC4(CC(c5ccccc5)=NO4)C3)ccc2C(N)=O)cc1 (stereo not shown) [Example 29, 2-((4-(Methylsulfonyl)phenyl)amino)-6-(3-phenyl-1-oxa-2,7-diazaspiro[4.5]dec-2-en-7-yl)nicotinamide] | 160 | 1 | 
COc1ccc([C@H](C)N[C@@H]2C=C(c3nc(Nc4ccc(N5CCOCC5)cc4)c(C(N)=O)cc3F)CCC2)cc1 [Example 437] | 2900 | 740 | 
CN1CCC(C)(c2ccc(Nc3nc(N4CCC[C@@H](NC(=O)c5ccccc5)C4)c(F)cc3C(N)=O)cc2)CC1 [Example 518] | 30 | 2 | 
CCN1CCN(c2ccc(Nc3nc(N4CCC[C@@H](NC(=O)c5ccccc5)C4)ccc3C(N)=O)cc2)CC1 [Example 354] | 100 | 4 | 
CN1CCN(c2ccc(Nc3nc(N4CCC[C@@H](NC(=O)Nc5nccs5)C4)c(F)cc3C(N)=O)cc2F)CC1 [Example 480] | 40 | 0.2 | 
NC(=O)c1ccc(N2CCC[C@@H](NC(=O)c3cccc(-c4nc5ccccc5[nH]4)c3)C2)nc1Nc1ccc(C(=O)N2CCOCC2)cc1 [Example 263] | 5700 | 0.9 | 
CN1CCCC(c2ccc(Nc3nc(N4CCC[C@@H](NC(=O)Nc5nnc(C(C)(C)C)s5)C4)c(F)cc3C(N)=O)cc2)C1 (stereo partly shown) [Example 561] | 140 | 0.9 | 
CN1CCN(c2ccc(Nc3nc(N4CCC[C@@H](NC(=O)c5ccc(F)c(F)c5)C4)c(F)cc3C(N)=O)cc2)CC1 [Example 413] | 240 | 1 | 
CC(C)(C)NCCc1ccc(Nc2nc(N3CCC[C@@H](NC(=O)Nc4nccs4)C3)c(F)cc2C(N)=O)cc1 [Example 550] | 120 | 2 | 

SMILES | IC50 ([1]; Homo sapiens, Ramos) [nM] | IC50 (human recombinant Btk) [nM] | IC50 [1] [nM]
CC(C)N1CCN(c2ccc(Nc3nc(N4CCC[C@@H](NC(=O)c5ccccc5)C4)ccc3C(N)=O)cc2)CC1 [Example 357] | 100 | 4 | 
CC(=O)N[C@@H]1CCCN(c2nc(Nc3ccc(N4CCN(C)CC4)cc3)c(C(N)=O)cc2F)C1 [Example 386] | 110 | 10 | 
CN1CCN(c2ccc(Nc3nc(N4CCC(O)CC4)c(F)cc3C(N)=O)cc2)CC1 [Example 407] | 120 | 30 | 
NC(=O)c1ccc(-c2cccc3c2CCN(C(=O)c2ccccc2)C3)nc1Nc1ccc(-c2cnco2)cc1 [Example 346] | 10000 | 2900 | 
NC(=O)c1cc(F)c(N2CCC[C@@H](NC(=O)Nc3nccs3)C2)nc1Nc1ccc(CCN2CCCC2)cc1 [Example 549] | 30 | 0.7 | 
CN1CCN(c2ccc(Nc3nc(N4CCC[C@@H](N(C)C(=O)c5ccccc5)C4)c(F)cc3C(N)=O)cc2)CC1 [Example 418] | 380 | 2 | 
NC(=O)c1cc(F)c(N2CCC[C@@H](NC(=O)Nc3nccs3)C2)nc1Nc1ccc(C2CCOCC2)cc1 [Example 555] | 190 | 3 | 
CN1CCN(c2ccc(Nc3nc(N4CCC[C@@H](NC(=O)c5ccc(F)cc5)C4)c(F)cc3C(N)=O)cc2)CC1 [Example 412] | 180 | 1 | 
CN(C)CCc1ccc(Nc2nc(N3CCCC(F)(F)C3)c(F)cc2C(N)=O)cc1 [Example 475] | 100 | 20 | 
CN1CCC(c2ccc(Nc3nc(N4CCCCC4)c(F)cc3C(N)=O)cc2)CC1 [Example 489] | 100 | 10 | 
CN1CCC(C)(c2ccc(Nc3nc(N4CCCC5(CC(c6ccccc6)=NO5)C4)c(F)cc3C(N)=O)cc2)CC1 (stereo not shown) [Example 571] | 150 | 2 | 
CN1CCN(c2ccc(Nc3nc(N4CCC[C@@H](N5CCCC5=O)C4)c(F)cc3C(N)=O)cc2F)CC1 [Example 482] | 170 | 2 | 
NC(=O)c1cc(F)c(C2CCCC(OC(=O)c3ccccc3)C2)nc1Nc1ccc(N2CCOCC2)cc1 (stereo not shown) [Example 430] | 10000 | 740 | 
CN1CCN(c2ccc(Nc3nc(N4CCC[C@@H](NC(=O)c5ccc(N(C)C)cc5)C4)c(F)cc3C(N)=O)cc2)CC1 [Example 414] | 230 | 2 | 
CN1CCN(c2ccc(Nc3nc(N4CCC[C@@H](NC(=O)c5ccccc5)C4)c(F)cc3C(N)=O)cc2)CC1 [Example 388] | 70 | 4 | 
NC(=O)c1cc(F)c(N2CCC[C@@H](NC(=O)c3ccc(F)c(Cl)c3)C2)nc1Nc1ccc(F)cc1 [Example 456] | 10000 | 4300 | 
CN1CCN(c2ccc(Nc3nc(N4CCC[C@@H](N5CCCC5=O)C4)c(F)cc3C(N)=O)cc2)CC1 [Example 419] | 180 | 1 | 
CN1CCC(c2ccc(Nc3nc(N4CCC[C@@H](NC(=O)c5ccc(F)cc5)C4)c(F)cc3C(N)=O)cc2)CC1 [Example 491] | 200 | 2 | 
CN1CCC(C)(c2ccc(Nc3nc(N4CCC[C@@H](NC(=O)Nc5nccs5)C4)c(F)cc3C(N)=O)cc2)CC1 [Example 554] | 40 | 0.7 | 
CN1CCC(C)(c2ccc(Nc3nc(N4CCC[C@@H](NC(=O)Nc5nnc(C(C)(C)C)s5)C4)c(F)cc3C(N)=O)cc2)CC1 [Example 494] |  | 0.6 | 
COc1cccc(Nc2nc(N3CCC[C@@H](NC(=O)Nc4nc(C)cs4)C3)ccc2C(N)=O)c1 [Example 331] |  | 780 | 
CN(c1cccc(Nc2nc(N3CCOCC3)c(F)cc2C(N)=O)c1)S(=O)(=O)c1ccc(-c2ccccc2)cc1 [Example 537] |  | 1100 | 
CC(C)(C)c1ccc(NC(=O)[C@@H]2CCN(c3ccc(C(N)=O)c(Nc4ccc(C(=O)N5CCOCC5)cc4)n3)C2)cc1 [Example 163] |  | 1500 | 
CN(c1cccc(Nc2nc(-c3ccc(Cl)cc3)ccc2C(N)=O)c1)S(=O)(=O)c1ccccc1 [Example 381] |  | 1000 | 
